In patent US11565003B2, “Mechanical opening of lipid bilayers by molecular nanomachines” (William Marsh Rice University, priority 2016, dated 2023):
Residues, ends and D or L forms follow the SMILES beside them. *: point of attachment. X1 = C[C@@H]1Cc2ccc3ccccc3c2/C1=C1\c2cc(C#CCCN=[N+]=[N-])ccc2Sc2ccc(C#CCCn3cc(C(=O)*)nn3)cc21

Legend:
[1] = system: PC-3 cells; assay: UV-activated nanomechanical necrosis, live cell confocal microscopy, PC-3; format: cell-based, human; conditions: for selectivity for targeted PC-3 cells over non-targeted control cells (in words): NIH 3T3 and CHO as non-targeted controls; for Time of Full Necrosis / Time of Initial Necrosis / % acceleration for full necrosis: 355 nm UV; for % acceleration for full necrosis: versus UV upon blank cells
Description: (§1) Following the synthetic bilipid vesicle experiments, nanomechanical action upon live cells was studied using confocal microscopy aided by a super-resolution technique called Phase Modulation Nanoscopy. Applicants used two experimental methods. In the first method (Method A), the molecular motors were loaded into the cell media and the imaging was initiated within 5 minutes to 24 hours. In the second method, (Method B), the molecular motors were loaded into the cell media, incubated for 30 minutes to 24 hours, and then washed three times with fresh molecular motor-free media before imaging.
Next, Applicants used the smaller nanomachine, 3. Initial control experiments (blank) were performed without nanomachines being present. UV-induced (355 nm) PC-3 necrosis is not initiated until approximately scan 20 (corresponding to 300 second continuous scanning UV exposure, 400 nJ/voxel total dwell time), characterized by massive disruption and rupture of the mitochondrial network and subsequent well-pronounced auto-fluorescent signal detectable in the nucleoli and nucleus wall (FIG. 7A). This is observable by the nucleoli membrane permeabilization and DNA damage at the onset of necrosis. The UV-induced necrosis reaches final stages at approximately scan 40 (corresponding to 600 seconds) that is consistent with characteristic extracellular membrane rupture and homogenous cytosolic auto-fluorescence, indicating loss of cellular organelle boundaries.
(§2) Microscopy cells were seeded in untreated iBibi 100 μL live cell channels and allowed to grow to 40% to 60% confluence, at 37° C. in 5% CO2. At this stage, the medium was replaced and cells were treated with the studied nanomachines and co-stains as appropriate, with 0.1% DMSO (as detailed above) present in the final imaging medium. For live cell imaging, DMEM/F12 media (10% FBS) lacking phenol red was used from this point onwards. Following incubation, where Method B was used, the channels were washed with live cell imaging media and imaged using a purpose build incubator housing the microscope maintaining 37° C., 5% CO2 and 10% humidity.
(§3) All live cell imaging experiments used either NIH 3T3 mouse skin fibroblast cells, PC-3 cells, a grade 3 human prostate adenocarcinoma, or Chinese hamster ovary cells (CHO). These are all well-studied cell lines with discrete morphological compositions. Each molecular machine was used as a stock solution at 0.10 to 1.00 μM with total dimethyl sulfoxide (DMSO) concentrations not exceeding 0.1% in the final cell media in order to avoid unwanted cell membrane permeabilization, the DMSO being required for solubility of the organic nanomachines. All loading experiments are carried out in a light-suppressed manner and the possibility of induced or accelerated uptake due to interaction between the molecular motors and the applied co-stain has been eliminated using a series of individual and reversed loading experiments.
(§4) All experimental imaging parameters (i.e., laser beam size, confocal pinhole size, laser intensity, line scanning speed, scanning area (field of view, FOV), and line averaging sequences) were kept constant throughout the experiments. The accuracy and errors associated with the establishment of accelerated necrosis are determined based on one dual channel imaging sequence, which takes 15 seconds in total. This imaging sequence has been carefully established using untreated live cells.
Steady state fluorescence images were recorded using a PhMoNa enhanced Leica SP5 II LSCM equipped with a HCX PL APO 63×/1.40 NA LambdaBlue Oil immersion objective. As an initial control experiment to establish the UV-induced cell toxicity threshold, while mitigating voxel exposure and ensuring sufficient laser dwell time, an imaging sequence has been established to monitor cell morphological and physiological changes as a function of time. All experiments used cell-line-determined culture medium containing 0.1% DMSO. […]

[2] = system: NIH 3T3 cells; assay: UV-activated nanomechanical necrosis, live cell confocal microscopy, NIH 3T3; format: cell-based, mouse; conditions: for Time of Full Necrosis / Time of Initial Necrosis / % acceleration for full necrosis: 355 nm UV; for % acceleration for full necrosis: versus UV upon blank cells
Description: as §1, with “imaging. […]” for “imaging.”
as §2, §3, §4
(§5) Steady state fluorescence images were recorded using a PhMoNa enhanced Leica SP5 II LSCM equipped with a HCX PL APO 63×/1.40 NA LambdaBlue Oil immersion objective. As an initial control experiment to establish the UV-induced cell toxicity threshold, while mitigating voxel exposure and ensuring sufficient laser dwell time, an imaging sequence has been established to monitor cell morphological and physiological changes as a function of time. All experiments used cell-line-determined culture medium containing 0.1% DMSO.
(§6) The applied 100 Hz detection sequence was based on a bidirectional dual-channel continuous scanning method where a minimalistic non-damaging visible laser light (458 nm, 0.2 mW) is used in conjunction with the above detailed UV exposure. This is set as a 2 line/scan accumulation parallel acquisition sequence that is recorded as a function of time. Studied channels correspond to transmission images and UV-induced mitochondrial auto-fluorescence detected at 460 to 550 nm. Applicants further confirmed that the effectiveness of monitoring the UV-activated nanomechanical action on live cells using a conventional CW mercury-arc excitation source equipped with an epi-fluorescence setup consisting of a Zeiss Axiovert 200M inverted microscope, as discussed in FIGS. 18A-C. […]

[3] = system: PC-3 cells; assay: 24 hours incubation without UV: proliferation and apoptosis (Annexin V, Image Cytometry); format: cell-based, human
Description: When PC-3 cells are loaded at 0.5 or 1.0 μM with 9 or 10, washed three times (Method B) or unwashed (Method A) after 24 hours of incubation, the cells visually appear without major signs of toxicity. However, the cells which had been incubated with 9 or 10 over 24 hours were not dividing as prolifically. The cultures appear to be populated ˜25% less in the presence of 9 and 20% of the cells in 10 compared to control untreated cells (FIGS. 12A-E).
In order to further investigate this point, these cells were collected via gentle centrifugation and re-suspended in fresh PBS and analyzed by Image Cytometry. Using Annexin V, these cells were all confirmed to show signs of apoptosis at 93±5%. This is in contrast to the remaining coverslip surface-bound cells that appear healthy.
These latter types of non-apoptotic cells show identical percentage of necrosis acceleration upon subsequent UV-activation of the cell-surface bound nanomachines compared to their shorter incubation time analogues. Thus, it appears that, upon 24 hour incubation, a noticeable amount of cells have nanomachines 9 and 10 either bound to vital cell membrane channels or transport proteins or they are internalized, subsequently shutting down some natural homeostatic mechanisms that leads to programmed cell death (FIGS. 12A-E). Furthermore, this is not the case with shorter incubation times regardless of whether Method A or B is used.

[4] = system: CHO cells; assay: UV-activated nanomechanical necrosis, live cell confocal microscopy, CHO; format: cell-based, Chinese hamster; conditions: 355 nm UV; for % acceleration for full necrosis: versus UV upon blank cells
Description: as §1, with “imaging. […]” for “imaging.”
as §2, §3, §4, §5, §6

[5] = system: PC-3 cells; assay: Two-photon near-infra red activation, PI dye entry, PC-3; format: cell-based, human; conditions: PC-3, 1 μM, PI 200 nM
Description: (§7) Two-photon microscopy studies of NIH 3T3 cells were executed on a Nikon E600 upright confocal microscope coupled to a tuneable (710-950 nm Coherent MaiTai) multiphoton source operating at (20%) 240 mW power using a 166 lps scan speed and 128×128 pixel frame resolution for MP-illumination. Images (512×512 pixel, 166 lps) were recorded using a 543 nm (1 mW HeNe) laser combined with a 560 nm long-pass filter to record PI (200 nM) fluorescence and follow the onset of induced necrosis.
(§8) Two photon live cell microscopy studies were also executed on a Nikon E600 upright confocal microscope coupled to a tuneable (710-950 nm Coherent MaiTai) multiphoton source operating at (19.8%) 240 mW power at 720 nm using 166 lines/sec scan speed and 128×128 pixel frame resolution for MP-illumination. An oil immersion Nikon IR objective (×60/1.4 NA) was used. Images (512×512 pixel, 166 l/s) were recorded using a 543 nm (1 mW HeNe) laser combined with a 570 nm long-pass filter to record PI dyes (200 nM). Fluorescence was measured as 2 frame averaged images in order to follow the onset of induced necrosis. Necrosis times have been assigned to detectable PI signals in the nucleolus.

[6] = system: NIH 3T3 cells; assay: Two-photon near-infra red activation, PI dye entry, NIH 3T3; format: cell-based, mouse; conditions: NIH 3T3, 1 μM, PI 200 nM
Description: as §7, §8

[7] = system: HEK293 cells; assay: Whole cell patch clamp electrophysiology; format: cell-based, human
Description: FIGS. 16A-B show whole-cell patch clamp studies of the dynamic effects of UV-induced molecular mechanical action of compound 3 upon HEK293 cells. Also shown are control studies using compound 3 without UV activation, UV-exposed rotor-free control molecule 5, and no molecular additives x. Compounds 3 and 5 were used at 1.0 μM concentrations. […] Similarly, the rotor-free compound 5, and no molecular additive x, show no inward currents during UV illumination (center two traces). Cells were held at −70 mV in voltage clamp mode and UV exposure began 15 seconds after the start of the recording. Each recording is a biological replicate and all traces are shown (n=4 recordings from different cells for 3+UV; n=3 recordings from different cells for each other condition). […] The white arrows (lower right image) highlight membrane blebbing that appears only in the cells treated with UV-activated compound 3. The scale bar represents 10 μm and is applicable for each micrograph.
The dynamic effects of nanomechanical action upon cellular membranes were then studied through the whole cell patch clamp electrophysiology of human embryonic kidney 293 cells (HEK293) commonly used for electrophysiological interrogation. […] These inward currents were not observed in the absence of UV illumination or during UV illumination of non-rotor-bearing control 5 or UV illumination of untreated cells (FIG. 16A).

[8] = PC-3, Method B (washed three times)
[9] = NIH 3T3, Method B (washed three times)

SMILES: CC(C)[C@H](NC(=O)[C@H](CCCNC(=N)N)NC(=O)[C@@H](NC(=O)[C@H](CC(N)=O)NC(=O)[C@H](CO)NC(=O)c1cn(CCC#Cc2ccc3c(c2)/C(=C2/c4c(ccc5ccccc45)C[C@H]2C)c2cc(C#CCCN=[N+]=[N-])ccc2S3)nn1)[C@@H](C)O)C(=O)N[C@@H](C)C(=O)N1CCC[C@H]1C(=O)O [Compound 10] (X1-SNTRVAP-OH)
- selectivity for targeted PC-3 cells over non-targeted control cells (in words) [1]: selectively target the PC-3 cell line over CHO cells
- Time of Full Necrosis ([1]; PC-3, Method A (no washing)): 420 s
- Time of Initial Necrosis ([1]; PC-3, Method A (no washing)): 195 s
- % acceleration for full necrosis ([1]; PC-3, Method A): 30%
- Time of Full Necrosis [1, 8]: 435 s
- Time of Initial Necrosis [1, 8]: 210 s
- % acceleration for full necrosis ([1]; PC-3, Method B): 27.5%
- accelerated necrosis upon UV-activation after washing and further 24 hours in rotor free media ([1]; PC-3, incubated 30 minutes to 4 hours, washed three times, 24 hours rotor free media): 25%
- Time of Full Necrosis ([2]; NIH 3T3, Method A (no washing)): 540 s
- Time of Initial Necrosis ([2]; NIH 3T3, Method A (no washing)): 270 s
- % acceleration for full necrosis ([2]; NIH 3T3, Method A): 10%
- Time of Full Necrosis [2, 9]: 600 s
- Time of Initial Necrosis [2, 9]: 300 s
- % acceleration for full necrosis ([2]; NIH 3T3, Method B): 0%
- UV-accelerated nanomechanical necrosis after 24 hours incubation (in words) ([2]; NIH 3T3, incubated 24 hours): less than half the efficiency compared to identical experiments using the targeted PC-3 cells
- cultures populated less compared to control untreated cells ([3]; PC-3, 0.5 or 1.0 μM, 24 hours of incubation, no UV): 20%
- mobilized cells showing signs of apoptosis (Annexin V) ([3]; PC-3, 24 hours incubation, cells collected from culture media): 93±5%
- Time of Full Necrosis ([4]; Method A (no washing)): 540 s
- Time of Initial Necrosis ([4]; Method A (no washing)): 270 s
- % acceleration for full necrosis ([4]; Method A): 10%
- Time of Full Necrosis ([4]; Method B (washed three times)): 600 s
- Time of Initial Necrosis ([4]; Method B (washed three times)): 300 s
- % acceleration for full necrosis ([4]; Method B): 0%

SMILES: C[C@H](NC(=O)[C@H](CCC(=O)O)NC(=O)CNC(=O)[C@H](CC(=O)O)NC(=O)CCc1cn(CCC#Cc2ccc3c(c2)/C(=C2/c4c(ccc5ccccc45)C[C@H]2C)c2cc(C#CCCN=[N+]=[N-])ccc2S3)nn1)C(N)=O [Compound 8]
- selectivity for targeted PC-3 cells over non-targeted control cells (in words) [1]: No selectivity was observed
- Time of Full Necrosis ([1]; PC-3, Method A (no washing)): 360 s
- Time of Initial Necrosis ([1]; PC-3, Method A (no washing)): 150 s
- % acceleration for full necrosis ([1]; PC-3, Method A): 40%
- Time of Full Necrosis [1, 8]: 360 s
- Time of Initial Necrosis [1, 8]: 150 s
- % acceleration for full necrosis ([1]; PC-3, Method B): 40%
- Time of Full Necrosis ([2]; NIH 3T3, Method A (no washing)): 375 s
- Time of Initial Necrosis ([2]; NIH 3T3, Method A (no washing)): 150 s
- % acceleration for full necrosis ([2]; NIH 3T3, Method A): 37.5%
- Time of Full Necrosis [2, 9]: 360 s
- Time of Initial Necrosis [2, 9]: 150 s
- % acceleration for full necrosis ([2]; NIH 3T3, Method B): 40%
- PI dye entry upon two-photon near-infra red illumination (in words) [5]: resulting in Propidium Iodide (PI) dyes entering
- PI dye entry upon two-photon near-infra red illumination (in words) [6]: resulting in Propidium Iodide (PI) dyes entering

SMILES: C[C@@H]1Cc2ccc3ccccc3c2C1=C1c2cc(C#CCCO)ccc2Sc2ccc(C#CCCO)cc21 (racemic) [Compound 3]
- Time of Full Necrosis ([1]; PC-3, Method A (no washing)): 300 s
- Time of Initial Necrosis ([1]; PC-3, Method A (no washing)): 135 s
- % acceleration for full necrosis ([1]; PC-3, Method A): 50%
- PI entry into cells upon UV-activated membrane disruption (in words) ([1]; PC-3, propidium iodide 0.10 μM in medium): PI enters the cell
- Time of Full Necrosis ([2]; NIH 3T3, Method A (no washing)): 300 s
- Time of Initial Necrosis ([2]; NIH 3T3, Method A (no washing)): 150 s
- % acceleration for full necrosis ([2]; NIH 3T3, Method A): 50%
- membrane currents without UV illumination (in words) ([7]; HEK293, 1.0 μM, 4 minute recording, no UV): no change in membrane currents
- inward ionic currents during UV illumination (in words) ([7]; HEK293, Method B, UV 355 nm, 1.0 μM): inward ionic currents were produced
- radius of membrane blebs ([7]; HEK293, after UV illumination): 3.8±0.2 μm
- PI dye entry upon two-photon near-infra red illumination (in words) [5]: resulting in Propidium Iodide (PI) dyes entering
- PI dye entry upon two-photon near-infra red illumination (in words) [6]: resulting in Propidium Iodide (PI) dyes entering
